Test: Solubility (aqueous / gastrointestinal fluids)
Type: physicochemical

- solubility in gastrointestinal fluids: practically insoluble
Structure (SMILES): CCOC(=O)C(Cc1ccc(NC(=O)c2c(Cl)cccc2Cl)cc1)NC(=O)c1c(C)cccc1Cl (stereo not shown) [Compound II]
